Measured values reported in patent US12208110B2 (priority 2020, dated 2025).

Columns and labels:
[1] = test system: RSV-Fluc (Recombinant Respiratory Syncytial virus strain A2 containing the firefly luciferase reporter); assay: microbe, parasite or virus in culture; format: cell-based; conditions: human respiratory syncytial virus, NHBE, 72 h, read-out: RSV-Fluc EC50 (nM, NHBE)
SARS-CoV-2 = assay: microbe, parasite or virus in culture; format: cell-based; conditions: Severe acute respiratory syndrome coronavirus 2, 48 h
[2] = MT4 cytotoxicity analysis (CellTiter-Glo); format: cell-based; conditions: human, MT4 CC50 (nM)
Method in brief: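 MT-4 cells were exposed in quadruplicate to 3-fold serial compound dilutions (DMSO stocks 2.5 uM to 10 mM) for five days at 37 °C. Viability was read by CellTiter-Glo luminescence.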

[3] = design: species or system Sprague-Dawley (SD) rats; conditions: male, Sprague-Dawley, rat, in vivo, po, 10 mg/kg
Description: Example 80: Rat Lung Phosphate (Monophosphate, Diphosphate and Triphosphate) Data with Exemplary Compounds
Measurement of GS-441524 (compound A below) and its phosphorylated metabolites (compounds B, C, and D below) in lung tissues was performed according to the following protocol.
The concentrations of GS-441524 (A) and its phosphorylated metabolites (B, C, and D) were determined in Sprague-Dawley (SD) rats following oral gavage administration of the test compounds. The in-life phase of studies was conducted at Covance Laboratories (Madison, WI). Animals were housed and handled in accordance with the Guide for the Care and Use of Laboratory Animals, Institute of Laboratory Animal Resources. The protocols were reviewed and approved by the Institutional Animal Care and Use Committees (IACUC). Male SD rats weighing approximately 0.3 kg were used for in-life portion of the studies. The animals were fasted overnight prior to the test compound administration and up to 4 hours post-dose. The animals were administered with the test compound at 5, 8, 10 or 20 mg/kg via oral gavage (3 rats per group). The aqueous formulation contains ethanol, dimethyl sulfoxide, Kolliphor HS-15, Labrasol, and propylene glycol. Approximately 0.5 grams of lung tissue samples were collected from each animal and analyzed by LC/MS/MS for determination of the concentrations of GS-441524 and its phosphorylated metabolites. For LC-MS/MS analysis, tissue samples were homogenized and extracted with 4-fold volume of 70% methanol containing 0.1% potassium hydroxide, 67 mM ethylenediamine tetraacetic acid, and internal standard. Approximately 200 μL aliquot of the homogenate was filtered using a 96-well filter plate (0.2 μm polypropylene; Agilent Captiva, Santa Clara, CA). The filtrate was evaporated to dryness and reconstituted with equal volume of 1 mM ammonium phosphate buffer (pH 7). The samples were then analyzed on a Sciex 6500+ LC-MS/MS instrument (Redwood City, CA). Analytes were eluted on a […] 50×2.0 mm Phenomenex Luna C18 HST column (Torrance, CA) using mobile phases containing 3 mM ammonium formate and 10 mM dimethylhexylamine and a linear gradient from 9% to 50% acetonitrile at a flow rate of 360 μL/min. Data acquisition and processing were accomplished using Sciex Analyst® Software. Total summed levels of GS-441524 phosphorylate metabolites (B+C+D) in lung tissues were generated from the sum of GS-441524 mono-, di- and tri-phosphate (B, C, and D respectively).

in vitro = format: cell-based; conditions: human
Description: Example 78: A549 Cytotoxicity Analysis
The cytotoxicity of compounds is determined in A549 cells in the following manner. Compounds (40 nL) are spotted onto 384-well Grenier plates prior to seeding 5000 A549 cells/well in a volume of 40 μL culture medium. The plates are incubated at 37° C. for 48 hours with 5% CO2. On day 2, 40 μL of CellTiter-Glo (Promega) is added and mixed 5 times. Plates are read for luminescence on an Envision (PerkinElmer) and the CC50 (compound concentration for reducing 50% of luminescence signal as a measure of cell viability) are calculated using a nonlinear regression model (four parameters). Two experiments are performed with technical duplicates.

| SMILES | EC50 [1] | EC50 (SARS-CoV-2) | CC50 at 5 days [2] | Total Lung Phosphate Level (monophosphate + diphosphate + triphosphate, nmol/g) [3] | CC50 at 48 h (in vitro) |
| --- | --- | --- | --- | --- | --- |
| CCCCCCCCCCCCCCCCCCOC[C@H](COP(=O)(O)OC[C@H]1O[C@@](C#N)(c2ccc3c(N)ncnn23)[C@H](O)[C@@H]1O)N(C)Cc1ccc(F)c(Cl)c1 [Example 3, ((2R,3S,4R,5R)-5-(4-aminopyrrolo[2,1-f][1,2,4]triazin-7-yl)-5-cyano-3,4-dihydroxytetrahydrofuran-2-yl)methyl ((R)-2-((3-chloro-4-fluorobenzyl)(methyl)amino)-3-(octadecyloxy)propyl) hydrogen phosphate] | 350 nM | 2.3 µM | 5700 nM | 0.6 nmol/g | – |
| CCCCCCCCCCCCCCCCCCOC[C@H](COP(=O)(O)OC[C@H]1O[C@@](C#N)(c2ccc3c(N)ncnn23)[C@H](O)[C@@H]1O)Oc1cc(OC)c(C#N)c(OC)c1 [Example 34, ((2R,3S,4R,5R)-5-(4-aminopyrrolo[2,1-f][1,2,4]triazin-7-yl)-5-cyano-3,4-dihydroxytetrahydrofuran-2-yl)methyl ((R)-2-(4-cyano-3,5-dimethoxyphenoxy)-3-(octadecyloxy)propyl) hydrogen phosphate] | 11 nM | 0.043 µM | 460 nM | 2.4 nmol/g | 10 µM |
| CCCCCCCCCCCCCCCCCCC[C@H](COP(=O)(O)OC[C@H]1O[C@@](C#N)(c2ccc3c(N)ncnn23)[C@H](O)[C@@H]1O)OCc1cc(F)cc(C#N)c1 [Example 35, ((2R,3S,4R,5R)-5-(4-aminopyrrolo[2,1-f][1,2,4]triazin-7-yl)-5-cyano-3,4-dihydroxytetrahydrofuran-2-yl)methyl ((R)-2-((3-cyano-5-fluorobenzyl)oxy)henicosyl) hydrogen phosphate] | 95 nM | 0.57 µM | 830 nM | 2.7 nmol/g | 16 µM |
